Each block holds one compound with its values, some of them ahead of it.
Assays:
human melanoma = assay: In vitro autoradiography of frozen sections of human melanoma (lymph node); type: binding; details: lymph node with pigmented metastatic melanoma; 200 pM ligand; FIG. 6 right
Description: (§1) After animals were killed, the brain, eyes or tumor were immediately removed and frozen on dry ice. Frozen, 16 μthick sections were cut in a cryostat at -16° C., thaw-mounted onto gelatin-coated slides and stored overnight under vacuum at 4° C. The tissue sections were preincubated for 15 min in 50 mM Tris-HCl buffer, pH 7.4, for 15 min and then incubated for 20 min in a solution containing 50 mM Tris-HCl, pH 7.4, 120 mM NaCl, 5 mM KCl, 2 mM CaCl2, 1 mM MgCl2 and 200 pM iodinated ligand (either R or S enantiomer). After incubation, the slides were washed 4 times in ice-cold 50 mM Tris-HCl buffer and dried under a stream of air. Autoradiographic images were produced by placing the slides in X-ray casettes and using them to expose [^3 H]ultra film for 15 hours following standard procedure.

[1] = system: caudate nucleus of the rat brain; assay: Binding of [125I]BZZ enantiomers to homogenate of caudate nucleus; details: FIG. 5
Description: (§2) A tissue homogenate rather than washed particulate material was used for the assay. The assay system (final volume 200 μ) contained Tris-HCl (pH 7.4), 80 mM; ethyleneglyco-bis-(β-aminoethyl ether) N,N',tetraacetic (EGTA), 0.8 mM and MgSO4, 10 mM; radiolabeled ligand (40,000 cpm, 60 pM) and the unlabeled ligand as required for competitive assay; and incubations were performed at 25° C. for about 60 min. When binding to striatum and to tumor were compared, binding to homogenates of both tissues was determined simultaneously. In order to determine the reproducibility of the results, ligand binding was determined in 3 replicate samples for each experimental condition. The mean of these three values was taken as a single errorless value and the mean of three (or more) of such values from independent experiments is reported. Data represent mean ± SE.

B16 melanoma [2] = assay: In vitro autoradiography of frozen sections of B16 melanoma; type: binding, mouse; details: 200 pM ligand; FIG. 6 left
Description: as §1

B16 melanoma [3] = assay: In vitro binding of [125I]BZZ to homogenate of B16 melanoma; parameters: species or system mouse
Description: as §2

[4] = In vitro autoradiography of frozen section of retina; type: binding, mouse; details: FIG. 3C
Description: as §1
Emulsion autoradiography was performed as follows: a flexible coverslip coated with NTB-3 (Kodak) was exposed to the tissue section; when the exposure was complete in about a day (about 24 hrs) the emulsion was developed at 4° for 2 min in D-19 developer. The section was stained with hematoxylin and eosin and the coverslip was reexposed to the stained section.

[5] = In vivo accumulation of radiolabel in eyes of pigmented and albino mice; parameters: species or system mouse
Description: (§3) Radiolabeled ligand was dissolved in Hank's balanced salt solution and administered via the tail vein as a bolus of 100 μl. At appropriate times, the animals were sacrificed and various organs removed. The amount of ^125 I radioactivity within a given organ was determined with a gamma counter.
as §1

B16 melanoma [6] = assay: Noninvasive imaging of [125I] with pinhole collimator and gamma camera; type: in vivo, mouse; details: tumor-bearing and nontumor-bearing mice; 50 μCi intravenous; FIG. 2
Description: Mice received a bolus injection of [^125 I]BZZ (50 μCi) dissolved in Hank's balanced salt solution via the tail vein. At several times, the distribution of [^125 I]was determined by imaging with a pinhole collimeter attached to a gamma camera (Raytheon Nuclear Diagnostics).

B16 melanoma [7] = assay: In vivo accumulation of intravenously administered radiolabel in B16 melanoma (gamma counting, autoradiography); parameters: species or system mouse
Description: The B16 melanoma was removed from the host mouse, washed in a balanced salt solution and then cut into small fragments (approximately 2 mm cubes). A tumor fragment was then implanted subcutaneously with a trochar into either the back or hind limb of the recipient mouse (either a C57/B16 or Swiss-Webster). Tumors could be easily seen within 2 to 3 weeks after implantation of the tumor fragment.
as §3, §1

D-1 dopamine receptor = target: T1, D-1 dopamine receptor (Mus musculus, UniProt Q61616); assay: In vitro binding of [125I]BZZ to homogenate of caudate putamen (competition with unlabeled SCH23390 enantiomers); details: FIG. 4A
T1 construct: homogenate of the caudate putamen of the Swiss Webster mouse brain; from tissue; host or cells: caudate-putamen homogenate, Swiss Webster mouse brain
T1 sequence (Q61616 whole entry): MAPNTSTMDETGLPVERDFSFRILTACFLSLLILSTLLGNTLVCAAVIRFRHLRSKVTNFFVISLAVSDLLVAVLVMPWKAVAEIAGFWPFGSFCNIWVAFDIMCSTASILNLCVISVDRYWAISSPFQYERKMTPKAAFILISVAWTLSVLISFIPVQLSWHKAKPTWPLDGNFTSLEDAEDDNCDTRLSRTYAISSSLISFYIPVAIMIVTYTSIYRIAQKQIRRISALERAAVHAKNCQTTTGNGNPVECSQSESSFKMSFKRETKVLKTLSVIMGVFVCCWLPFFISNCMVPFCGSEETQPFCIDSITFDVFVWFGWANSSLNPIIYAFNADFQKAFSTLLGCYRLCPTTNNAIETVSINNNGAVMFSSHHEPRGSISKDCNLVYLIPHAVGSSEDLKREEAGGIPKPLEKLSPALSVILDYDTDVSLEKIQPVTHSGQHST
Description: as §2

[8] = mouse given B16 melanoma cells intravenously 3 weeks earlier, 50 μCi, autoradiogram FIG. 1D, E

binding to metastatic human melanoma (frozen section autoradiogram) (human melanoma): effectively bind | binding to homogenate of caudate nucleus [1]: failed to bind | binding to frozen sections of murine B16 melanoma (B16 melanoma [2]): bound to frozen sections
SMILES: CN1CCc2cc([125I])c(O)cc2[C@H](c2ccccc2)C1 [[^125 I]-S-BZZ]
binding to pigmented B16 melanoma homogenate (B16 melanoma [3]; compared with R-enantiomer, FIG. 5): to the same degree as did its R-enantiomer

SMILES: CN1CCc2cc(Cl)c(O)cc2C(c2ccccc2)C1 (centres unmarked) [2,3,4,5-tetrahydro-8-chloro-3 methyl-5-phenyl-1H-3 benzazepin-7-ol]
displacement of [125I]BZZ from melanoma tissue (B16 melanoma [3]): effectively displaced

difference between amount of radiolabel accumulated in pigmented and albino eyes ([5]; C57B1/6 versus Swiss Webster mouse, 10 μCi intravenous, P<0.001): 79 fold | binding to metastatic human melanoma (frozen section autoradiogram) (human melanoma): effectively bind | accumulation within the abdomen (B16 melanoma [6]): substantial accumulation | concentration of radiolabel within B-16 melanoma relative to nonpigmented eye (B16 melanoma [7]; albino mouse, 10 μCi intravenous, within 45 min, p<0.001): 19 times | accumulation of radiolabel in foci of pigmented cells of lung (metastatic melanoma) (B16 melanoma [7]; [8]): heavy accumulation of radiolabel | binding of ligand to normal lung tissue (B16 melanoma [7]; [8]): does not bind the ligand | binding to frozen sections of murine B16 melanoma (B16 melanoma [2]): bound to frozen sections | amount of bound radioactivity corresponding to 100 percent (B16 melanoma [3]; homogenate of B16 melanoma propagated in Swiss Webster mice, FIG. 4B): 18,033±3,647 cpm/mg wet weight | amount of bound radioactivity corresponding to 100 percent (D-1 dopamine receptor; homogenate of caudate putamen of Swiss Webster mouse brain): 23,379±555 cpm/mg wet wt
SMILES: CN1CCc2cc([125I])c(O)cc2[C@@H](c2ccccc2)C1 [[^125 I]BZZ]
localization of radiolabel in frozen section of retina exposed to ligand in vitro [4]: highly concentrated within the melanin containing pigment epithelium | localization of radiolabel within the pigmented eye (autoradiography) ([5]; 50 μCi, 45 min, FIG. 3B): accumulated predominantly in a narrow band at the back of the pigmented eye | accumulation of radiolabel in tumor versus surrounding tissues (autoradiograph) (B16 melanoma [7]; frozen section of B16 melanoma after intravenous administration, FIG. 1B, C): much higher degree than within the surrounding tissues

SMILES: CN1CCc2cc(Cl)c(O)cc2[C@@H](c2ccccc2)C1 [R-enantiomer, reference compound]
concentration required to displace [125I]BZZ from melanoma binding site relative to D-1 dopamine receptor (B16 melanoma [3]; B16 melanoma versus caudate homogenate, FIGS. 4A and B): 400 fold | difference between R- and S-enantiomers (B16 melanoma [3]; binding site in B16 melanoma, displacement of [125I]BZZ, FIG. 4B): 5.1 fold | affinity for R-enantiomer relative to S-enantiomer (D-1 dopamine receptor; D-1 receptor in caudate nucleus, displacement of [125I]BZZ): 100 fold

— patent US4749559A, “Method for detecting melanin-containing matter” (United States of America, priority 1986, dated 1988)
